Like-named read-outs stand apart in the source and are kept apart here.
What was measured:
Uch-L3 = biological target: T1, Uch-L3 (Homo sapiens, UniProt P15374); test: UCH-L3 activity assay; assay type: biochemical; conditions: 400 nM Ub-AMC, 13 pM enzyme, 30 min pre-incubation at 25° C., 60 min at 37° C.; sigmoidal fit; AF: Autofluorescent; read-out: Uch-L3 (inhibition of cysteine protease activity)
T1 sequence (P15374 1-230): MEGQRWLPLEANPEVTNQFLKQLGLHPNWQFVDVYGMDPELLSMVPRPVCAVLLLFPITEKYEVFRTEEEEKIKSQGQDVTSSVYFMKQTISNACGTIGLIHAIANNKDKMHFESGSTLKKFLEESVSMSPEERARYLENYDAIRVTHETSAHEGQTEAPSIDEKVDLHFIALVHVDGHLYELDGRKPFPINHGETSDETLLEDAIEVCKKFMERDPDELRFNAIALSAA
In short: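 Compounds were pre-incubated with 13 pM Uch-L3 for 30 min at 25° C in pH 7.6 buffer with 0.05 mg/ml BSA. Reactions ran 60 min at 37° C with 400 nM Ub-AMC, were stopped with 100 mM acetic acid, and AMC fluorescence was read. Duplicates were expressed as % of no-compound control and fitted to a variable-slope sigmoid.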

Cathepsin B = Cathepsin B (Homo sapiens, UniProt P07858); test: Cathepsin B activity assay; assay type: biochemical; conditions: 36 μM z-RR-AMC, 3.6 nM enzyme, 30 min pre-incubation at 25° C., 60 min at 37° C.; sigmoidal fit; AF: Autofluorescent; read-out: cathepB (inhibition of cysteine protease activity)
Protocol: Cathepsin B was diluted in Cathepsin B buffer (20 mM Tris HCl pH 6.8; 1 mM EDTA; 1 mM DTT). Compounds stocks (100 mM) were stored at −20° C. in DMSO. […] Reactions were performed as duplicates in Black LJL 96 well plates (HE microplates; Molecular Devices; 20 μl final reaction volume). The substrate concentration for cathepsin B specificity assay was 36 μM (z-RR-AMC; Calbiochem). The concentration of the enzyme (Cathepsin B) in specificity assays was 3.6 nM. The concentrations were determined in order to perform specificity assays under initial velocities at fixed substrate concentration. Compounds were pre-incubated with enzymes for 30 minutes at 25° C. Reactions were initiated by addition of substrate to the plates containing the enzymes (+/− compounds) diluted in assay buffer. Reactions were incubated for 60 minutes at 37° C. Reactions were stopped by adding acetic acid (100 mM final). Readings were performed on a Pherastar Fluorescent Reader (BMG). δ Emission 380 nm; 6 Excitation=460 nm. Data (mean values+/− standard deviation) were analyzed as % of control (no compound) and plotted as percentage versus the Log of the compound concentration using GraphPad (Prism). Data were fitted to a sigmoidal model (variable slope).

USP8 = biological target: T2, USP8 (Homo sapiens, UniProt P40818); test: USP8 activity assay; assay type: biochemical; conditions: 400 nM Ub-AMC, pH8.8, 30 min pre-incubation at 25° C., 60 min at 37° C.; sigmoidal fit; AF: Autofluorescent; read-out: USP 8 (inhibition of cysteine protease activity)
T2 sequence (P40818 1-1118): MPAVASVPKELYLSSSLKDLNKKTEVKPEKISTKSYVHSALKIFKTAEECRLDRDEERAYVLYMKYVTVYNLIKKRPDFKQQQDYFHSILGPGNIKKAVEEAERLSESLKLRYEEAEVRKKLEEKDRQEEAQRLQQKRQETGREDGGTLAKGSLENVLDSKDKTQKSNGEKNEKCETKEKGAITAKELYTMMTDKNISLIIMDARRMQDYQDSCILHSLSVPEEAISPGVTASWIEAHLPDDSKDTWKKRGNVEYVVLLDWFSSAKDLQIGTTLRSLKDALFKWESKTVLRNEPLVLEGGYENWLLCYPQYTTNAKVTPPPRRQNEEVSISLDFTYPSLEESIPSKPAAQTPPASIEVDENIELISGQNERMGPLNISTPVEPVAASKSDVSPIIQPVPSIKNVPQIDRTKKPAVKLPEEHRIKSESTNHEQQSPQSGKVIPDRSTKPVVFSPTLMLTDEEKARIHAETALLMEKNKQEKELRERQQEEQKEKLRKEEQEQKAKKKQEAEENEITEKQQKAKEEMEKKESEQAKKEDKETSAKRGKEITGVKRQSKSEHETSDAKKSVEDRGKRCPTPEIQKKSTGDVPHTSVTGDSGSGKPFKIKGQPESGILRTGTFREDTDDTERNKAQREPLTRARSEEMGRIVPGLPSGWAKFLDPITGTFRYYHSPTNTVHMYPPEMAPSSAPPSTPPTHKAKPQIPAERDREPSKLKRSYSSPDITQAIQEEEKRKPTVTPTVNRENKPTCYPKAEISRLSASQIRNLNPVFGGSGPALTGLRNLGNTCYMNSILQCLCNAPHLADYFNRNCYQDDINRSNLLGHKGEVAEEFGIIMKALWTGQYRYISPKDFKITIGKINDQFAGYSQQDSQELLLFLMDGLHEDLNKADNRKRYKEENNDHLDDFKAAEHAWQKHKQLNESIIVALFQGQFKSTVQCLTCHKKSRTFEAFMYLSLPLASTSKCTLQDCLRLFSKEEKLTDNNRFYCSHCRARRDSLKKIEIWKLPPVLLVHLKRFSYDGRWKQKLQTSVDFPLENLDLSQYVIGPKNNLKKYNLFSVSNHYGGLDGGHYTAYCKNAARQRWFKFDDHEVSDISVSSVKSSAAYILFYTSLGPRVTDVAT

[1] = system: PC-3 prostate cancer cells; test: PC3 cell viability and proliferation assay (MTS); assay type: cell-based; conditions: Homo sapiens, PC-3, 72 h, read-out: PC3 D3 GI50
[2] = PC3 cells, 72 hours incubation, MTS, mean of 3 independent experiments

Compound: COc1ccc2c(c1OC)C(=O)c1nc(C#N)c(C#N)nc1-2 [Example 17d, 7,8-Dimethoxy-9-oxo-9H-indeno[1,2-b]pyrazine-2,3-dicarbonitrile]
- IC50 (Uch-L3): 0.77 µM
- IC50 (Cathepsin B): 87 µM
- IC50 (USP8): 0.71 µM
- GI50 [1, 2]: 0.91 µM

Compound: N#Cc1nc2c(nc1CC(N)=O)-c1ccccc1C2=O [Example 26, 2-(2-cyano-9-oxo-9H-indeno[1,2-b]pyrazin-3-yl)-acetamide]
- IC50 (Uch-L3): 1.6 µM
- IC50 (Cathepsin B): > 100 µM
- IC50 (USP8): 11 µM
- GI50 [1]: > 10 µM

Compound: C=CCON=C1c2ccccc2-c2nc(C(N)=O)c(C#N)nc21 [Example 34a, 9-Allyloxyimino-2-cyano-9H-indeno[1,2-b]pyrazine-3-carboxylic acid amide]
- IC50 (Uch-L3): 0.032 µM
- IC50 (Cathepsin B): 3.5 µM
- IC50 (USP8): 0.058 µM
- GI50 [1]: 0.511 µM

Compound: N#Cc1nc2c(nc1N)-c1ccccc1C2=O [Example 7, 3-amino-9-oxo-9H-indeno[1,2-b]pyrazine-2-carbonitrile]
- IC50 (Uch-L3): 52 µM
- IC50 (Cathepsin B): > 100 µM
- IC50 (USP8): 48 µM
- GI50 [1, 2]: > 10 µM

Compound: COc1cc2c(cc1OC)-c1nc(C#N)c(C#N)nc1C2=O [Example 17b, 6,7-Dimethoxy-9-oxo-9H-indeno[1,2-b]pyrazine-2,3-dicarbonitrile]
- IC50 (Uch-L3): 5.4 µM
- IC50 (Cathepsin B): > 100 µM
- IC50 (USP8): 2.5 µM
- GI50 [1, 2]: 0.92 µM

Compound: Cc1cccc2c1C(=O)c1nc(C#N)c(C#N)nc1-2 [Example 17c, 8-Methyl-9-oxo-9H-indeno[1,2-b]pyrazine-2,3-dicarbonitrile]
- IC50 (Uch-L3): 2 µM
- IC50 (Cathepsin B): > 100 µM
- IC50 (USP8): 3.1 µM
- GI50 [1, 2]: 0.93 µM

Compound: Cc1ccc2c(c1)-c1nc(C#N)c(C#N)nc1C2=O [Example 17e, 6-Methyl-9-oxo-9H-indeno[1,2-b]pyrazine-2,3-dicarbonitrile]
- IC50 (Uch-L3): 2.1 µM
- IC50 (Cathepsin B): 20 µM
- IC50 (USP8): 0.93 µM
- GI50 [1, 2]: 1.32 µM

Compound: COCCOc1nc2c(nc1C#N)C(=O)c1ccccc1-2 [Example 5, 3-(2-methoxy-ethoxy)-9-oxo-9H-indeno[1,2-b]pyrazine-2-carbonitrile]
- IC50 (Uch-L3): 24 µM
- IC50 (Cathepsin B): > 100 µM
- IC50 (USP8): 53 µM
- GI50 [1, 2]: > 10 µM

Compound: N#Cc1nc2c(nc1C#N)-c1ccccc1C2=NO [Example 12, 9-[hydroxyimino]-9H-indeno[1,2-b]pyrazine-2,3-dicarbonitrile]
- IC50 (Uch-L3): 1.3 µM
- IC50 (Cathepsin B): 21 µM
- IC50 (USP8): 7 µM
- GI50 [1, 2]: 4.4 µM

— patent US8648076B2, “Cysteine protease inhibitors and their therapeutic applications” (Hybrigenics SA, priority 2005, dated 2014)
